According to patent US10633419B2, “Immunomodulators” (BRISTOL-MYERS SQUIBB COMPANY, priority 2014, dated 2020):
Starred links: 1 amine or outer side, 2 acyl side, 3 side chain; linkers in the order of their positions; H or OH if unused. Positions of bridges follow the written chain, without caps; N, C: chain ends. Non-standard residues stand in square brackets, D forms with d. Residues, ends and D or L forms follow the SMILES beside them. *: point of attachment. X12 = O=C(O)CCCCCCCCCCCCCCCCCCC(=O)N[C@@H](CCC(=O)NCCCOCCOCCOCCCN*)C(=O)O; X18 = O=C(O)CCCCCCCCCCCCCCC(=O)N[C@@H](CC(=O)NCCCOCCOCCOCCCN*)C(=O)O; Trp(1-CH2COOH) = N[C@@H](Cc1cn(CC(=O)O)c2ccccc12)C(=O)O; X24 = O=C(C[C@@H](Cc1ccc(O)cc1)C(=O)[*:1])C[*:2]; d(cisHyp) = O=C(O)[C@H]1C[C@@H](O)CN1; PEG6 = NCCOCCOCCOCCOCCOCCOCCC(=O)O; Hyp = O=C(O)[C@@H]1C[C@@H](O)CN1; dHyp = O=C(O)[C@H]1C[C@H](O)CN1; Undecanoyl = CCCCCCCCCCC(=O)*; NMeNle = CCCC[C@H](NC)C(=O)O; dDab = NCC[C@@H](N)C(=O)O; NMeA = CN[C@@H](C)C(=O)O; Aun = NCCCCCCCCCCC(=O)O; Dab = NCC[C@H](N)C(=O)O; Dap = NC[C@H](N)C(=O)O

The molecules below were run against T1, PD-L1 (Homo sapiens, UniProt Q9NZQ7) (assay: PD-1/PD-L1 Homogenous Time-Resolved Fluorescence (HTRF) binding assay (PD-1-Ig/PD-L1-His)). Details: inhibition of PD-1-Ig binding to PD-L1-TVMV-His; value given as range class; read-out: HTRF IC50.
T1 construct: hPDL1(19-239)-TVMV-His; made in house; host or cells: HEK293T
Outline: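 Inhibitors pre-incubated 15 min with PD-L1-His (10 nM final), then PD-1-Ig (20 nM final) added for 15 min in dPBS/0.1% BSA/0.05% Tween-20. Eu-cryptate anti-Ig (1 nM) and APC anti-His (20 nM) added, 30 min equilibration, 665/620 nm HTRF ratio read.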

T1 sequence (Q9NZQ7 with tags, fused parts or gaps): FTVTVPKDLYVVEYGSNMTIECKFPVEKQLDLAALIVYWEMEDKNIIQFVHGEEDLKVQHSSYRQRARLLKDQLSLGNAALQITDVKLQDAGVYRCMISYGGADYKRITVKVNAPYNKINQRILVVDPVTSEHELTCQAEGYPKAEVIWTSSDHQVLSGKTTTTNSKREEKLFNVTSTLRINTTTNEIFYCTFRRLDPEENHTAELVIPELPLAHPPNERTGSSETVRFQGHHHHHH

SMILES	IC50
CCCCCCCCCCC(=O)NCCCC[C@H](NC(=O)CCOCCOCCOCCOCCOCCOCCNC(=O)[C@@H]1CSCC(=O)C[C@@H](Cc2ccc(O)cc2)C(=O)N(C)[C@@H](C)C(=O)N[C@@H](CC(N)=O)C(=O)N2CCC[C@H]2C(=O)N[C@@H](Cc2cnc[nH]2)C(=O)N[C@@H](CCC(=O)O)C(=O)N2C[C@H](O)C[C@H]2C(=O)N[C@@H](Cc2c[nH]c3ccccc23)C(=O)N[C@@H](CCN)C(=O)N[C@@H](Cc2cn(CC(=O)O)c3ccccc23)C(=O)N(C)[C@@H](CCCC)C(=O)N(C)[C@@H](CCCC)C(=O)N[C@@H](CC(C)C)C(=O)N1)C(N)=O [Example 11012] ([NMeA]NPHE[Hyp]W[Dab][Trp(1-CH2COOH)][NMeNle][NMeNle]LC[PEG6]K(Undecanoyl)-NH2; linker N-13 via X24)	10 to 99 nM
CCCC[C@H]1C(=O)N(C)[C@@H](CCCC)C(=O)N[C@@H](CC(C)C)C(=O)N[C@@H](C(=O)NCC(=O)N[C@@H](CC(=O)O)C(=O)N[C@@H](CCC(=O)NCCCOCCOCCOCCCNC(=O)C[C@H](NC(=O)CCCCCCCCCCCCCCC(=O)O)C(=O)O)C(=O)O)CSCC(=O)N[C@@H](Cc2ccc(O)cc2)C(=O)N(C)[C@@H](C)C(=O)N[C@@H](CC(N)=O)C(=O)N2CCC[C@@H]2C(=O)N[C@@H](CN)C(=O)N[C@@H](CC(C)C)C(=O)N2C[C@@H](O)C[C@@H]2C(=O)N[C@@H](Cc2c[nH]c3ccccc23)C(=O)N[C@H](CCN)C(=O)N[C@@H](Cc2cn(CC(=O)O)c3ccccc23)C(=O)N1C [Example 11241] ({CH2CO}-Y[NMeA]N[dP][Dap]L[dHyp]W[dDab][Trp(1-CH2COOH)][NMeNle][NMeNle]L[dC]GDE(X18)-OH; thioether N-14)	10 to 99 nM
CCCC[C@H]1C(=O)N(C)[C@@H](CCCC)C(=O)N[C@@H](CC(C)C)C(=O)N[C@H](C(=O)NCC(=O)N[C@@H](CCC(=O)O)C(=O)NCCCOCCOCCOCCCNC(=O)CC[C@H](NC(=O)CCCCCCCCCCCCCCCCCCC(=O)O)C(=O)O)CSCC(=O)N[C@@H](Cc2ccc(O)cc2)C(=O)N(C)[C@@H](C)C(=O)N[C@@H](CC(N)=O)C(=O)N2CCC[C@H]2C(=O)N[C@@H](CN)C(=O)N[C@@H](CC(C)C)C(=O)N2C[C@H](O)C[C@H]2C(=O)N[C@@H](Cc2c[nH]c3ccccc23)C(=O)N[C@@H](CCN)C(=O)N[C@@H](Cc2cn(CC(=O)O)c3ccccc23)C(=O)N1C [Example 11226] ({CH2CO}-Y[NMeA]NP[Dap]L[Hyp]W[Dab][Trp(1-CH2COOH)][NMeNle][NMeNle]LCGE-X12; thioether N-14)	0.3 to 9.9 nM
CCCC[C@H]1C(=O)N(C)[C@@H](CCCC)C(=O)N[C@@H](CCC(=O)O)C(=O)N[C@H](C(=O)NCC(=O)N[C@@H](Cc2cn(CC[C@H](NC(=O)CCCCCCCCCCCCCCCCC(=O)O)C(=O)O)nn2)C(=O)O)CSCC(=O)N[C@@H](Cc2ccc(O)cc2)C(=O)N(C)[C@@H](C)C(=O)N[C@@H](CC(N)=O)C(=O)N2CCC[C@H]2C(=O)N[C@@H](CN)C(=O)N[C@@H](CC(C)C)C(=O)N2C[C@H](O)C[C@H]2C(=O)N[C@@H](Cc2c[nH]c3ccccc23)C(=O)N[C@@H](CCN)C(=O)N[C@@H](Cc2cn(CC(=O)O)c3ccccc23)C(=O)N1C [Example 13125]	10 to 99 nM
CCCC[C@H]1C(=O)N(C)[C@@H](CCCC)C(=O)N[C@@H](CC(C)C)C(=O)N[C@H](C(=O)NCCOCCOCCOCCOCCOCCOCCC(=O)O)CSCC(=O)N[C@@H](Cc2ccc(O)cc2)C(=O)N(C)[C@@H](C)C(=O)N[C@@H](CC(N)=O)C(=O)N2CCC[C@H]2C(=O)N[C@@H](CO)C(=O)N[C@@H](CCC(N)=O)C(=O)N2C[C@H](O)C[C@@H]2C(=O)N[C@@H](Cc2c[nH]c3ccccc23)C(=O)N[C@@H](CO)C(=O)N[C@@H](Cc2cn(CC(=O)O)c3ccccc23)C(=O)N1C [Example 11045] ({CH2CO}-Y[NMeA]NPSQ[d(cisHyp)]WS[Trp(1-CH2COOH)][NMeNle][NMeNle]LC[PEG6]-OH; thioether N-14)	10 to 99 nM
CCCC[C@H]1C(=O)N(C)[C@@H](CCCC)C(=O)N[C@@H](CCCNC(=N)N)C(=O)N[C@H](C(=O)NCCCCCCCCCCC(N)=O)CSCC(=O)N[C@@H](Cc2ccc(O)cc2)C(=O)N(C)[C@@H](C)C(=O)N[C@@H](CC(=O)O)C(=O)N2CCC[C@H]2C(=O)N[C@@H](Cc2cnc[nH]2)C(=O)N[C@@H](CC(C)C)C(=O)N2C[C@H](O)C[C@H]2C(=O)N[C@@H](Cc2c[nH]c3ccccc23)C(=O)N[C@@H](CO)C(=O)N[C@@H](Cc2c[nH]c3ccccc23)C(=O)N1C [Example 11064] ({CH2CO}-Y[NMeA]DPHL[Hyp]WSW[NMeNle][NMeNle]RC[Aun]-NH2; thioether N-14)	0.3 to 9.9 nM
CCCC[C@H]1C(=O)N(C)[C@@H](CCCC)C(=O)N[C@@H](CC(C)C)C(=O)N[C@@H](C(=O)NCC(=O)N[C@@H](CC(=O)O)C(=O)NCCCOCCOCCOCCCNC(=O)C[C@H](NC(=O)CCCCCCCCCCCCCCC(=O)O)C(=O)O)CSCC(=O)N[C@@H](Cc2ccc(O)cc2)C(=O)N(C)[C@@H](C)C(=O)N[C@@H](CC(N)=O)C(=O)N2CCC[C@@H]2C(=O)N[C@@H](CN)C(=O)N[C@@H](CC(C)C)C(=O)N2C[C@@H](O)C[C@@H]2C(=O)N[C@@H](Cc2c[nH]c3ccccc23)C(=O)N[C@@H](CCN)C(=O)N[C@@H](Cc2cn(CC(=O)O)c3ccccc23)C(=O)N1C [Example 11238] ({CH2CO}-Y[NMeA]N[dP][Dap]L[dHyp]W[Dab][Trp(1-CH2COOH)][NMeNle][NMeNle]L[dC]GD-X18; thioether N-14)	0.3 to 9.9 nM
